ChEMBL document CHEMBL6115034, “Pseudonatural Flavonols as Novel Copper Ionophores for NAFLD Intervention via Synergistic Copper Delivery and Flavonoid Activity” (J Med Chem, 2025)
Activity calls are given as the source filed them. The rule behind the calls is not given here.

Key:
HepG2 [1] = assay: Cytotoxicity against human HepG2 cells assessed as cell viability at 0.1 to 5 uM measured at 24 hrs by MTT assay; format: functional, cell-based; conditions: dose 0.1-5 µM
HepG2 [2] = assay: Anti-NAFLD activity in palmitic acid human HepG2 NAFLD cell model assessed as cell viability at 0.1 to 0.5 uM compound administrated as copper complex measured at 24 hrs by MTT assay; format: functional, cell-based; conditions: dose 0.1-0.5 µM
[3] = Induction of copper transporting activity in human HeLa cells assessed as fold increase in intracellular copper levels at 2 uM incubated for 4 hrs by ICP-MS analysis; format: functional
Hepatocyte [4] = assay: Cytotoxicity against mouse Hepatocyte assessed as cell viability at 0.1 to 5 uM measured at 24 hrs by MTT assay; format: toxicity, cell-based; conditions: hepatocytes, dose 0.1-5 µM
HepG2 [5] = assay: Cytotoxicity against human HepG2 cells assessed as cell viability at 0.1 to 5 uM compound administrated as copper complex measured at 24 hrs by MTT assay; format: functional, cell-based; conditions: dose 0.1-5 µM
HepG2 [6] = assay: Anti-NAFLD activity in palmitic acid human HepG2 NAFLD cell model assessed as increase in ROS level at 5 uM compound administrated as copper complex measured at 24 hrs by DCFH-DA probe based flow cytometry analysis; format: functional
Hepatocyte [7] = assay: Cytotoxicity against mouse Hepatocyte assessed as cell viability at 0.1 to 5 uM compound administrated as copper complex measured at 24 hrs by MTT assay; format: toxicity, cell-based; conditions: hepatocytes, dose 0.1-5 µM

Row | SMILES | Activity (HepG2 [1]) | Activity (HepG2 [2]) | fold change (FC) [3] | Activity (Hepatocyte [4]) | Activity (HepG2 [5]) | Activity (HepG2 [6]) | Activity (Hepatocyte [7])
1 | O=c1c(O)c(-c2ccc3c(Cl)ccc(O)c3n2)oc2ccccc12 | Active | Active | ~5 | Non-toxic | Active | Active | Non-toxic
2 | COc1ccc2oc(-c3ccc4cccc(O)c4n3)c(O)c(=O)c2c1 | Active | Active | ~5 | Non-toxic | Active | Active | Non-toxic
